Laboratory results from patent publication US20120029187A1, “HALOALKYLSULFONANILIDE DERIVATIVE” (Nissan Chemical Industries, Ltd., priority 2009, published 2012).

Columns and labels:
Format in all cases: in vivo
posumbu knotweed [1] = assay: Test Example 3: herbicidal effects in soil treatment
Summary of the method: (§1)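 Seeds were sown in sterilized diluvial soil and covered with about 1.5 cm of soil. Compounds, formulated as emulsifiable concentrates and diluted with water, were sprayed evenly over the soil surface at set doses in g/a. Herbicidal effect was scored on a rating scale three weeks later.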

Italian ryegrass [2] = assay: as above
Summary of the method: as §1

water foxtail [3] = assay: as above
Summary of the method: as §1

common ragweed [4] = assay: as above
Summary of the method: as §1

common lambsquater [5] = assay: as above; conditions: dose 6.3 g/a
Summary of the method: as §1

giant foxtail [6] = assay: as above
Summary of the method: as §1

wild oat [7] = assay: as above
Summary of the method: as §1

redroot pigweed [8] = assay: as above
Summary of the method: as §1

large crabgrass [9] = assay: as above
Summary of the method: as §1

barnyardgrass [10] = assay: as above
Summary of the method: as §1

velvetleaf [11] = assay: as above
Summary of the method: as §1

common chickweed [12] = assay: as above
Summary of the method: as §1

bulrush [13] = assay: Test Example 2: herbicidal effects during the vegetation period under submerged conditions; conditions: treatment during the vegetation period under submerged conditions; dose 2.52 g/a
Summary of the method: (§2)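 Barnyardgrass, bulrush and ducksalad were co-sown in alluvial soil flooded to 4 cm and grown in a greenhouse at 25 to 30° C. At the 1- or 2-leaf stage, water-diluted emulsifiable concentrates went onto the water surface at set doses (g/a). Herbicidal effect was scored three weeks later on a graded scale.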

ducksalad [14] = assay: as above; conditions: treatment during the vegetation period under submerged conditions; dose 2.52 g/a
Summary of the method: as §2

barnyardgrass [15] = assay: as above; conditions: treatment during the vegetation period under submerged conditions; dose 2.52 g/a
Summary of the method: as §2

bulrush [16] = assay: Test Example 1: herbicidal effects in preemergence treatment under submerged conditions; conditions: dose 2.52 g/a
Summary of the method: (§3)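 Alluvial soil was flooded to 4 cm, sown with barnyardgrass, bulrush and ducksalad, and planted with 2.5-leaf rice seedlings. On the seeding day, water-diluted emulsifiable concentrates were applied to the water surface at set doses (g/a). After three weeks in a 25 to 30° C. greenhouse, mortality was scored 0–5.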

ducksalad [17] = assay: as above; conditions: dose 2.52 g/a
Summary of the method: as §3

barnyardgrass [18] = assay: as above; conditions: dose 2.52 g/a
Summary of the method: as §3

posumbu knotweed [19] = assay: Test Example 4: herbicidal effect in foliage treatment; conditions: three weeks after application
Summary of the method: (§4)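 A uniform foliar spray of emulsifiable concentrate, diluted with water to give the stated g/a dose, was applied to plants raised for 14 days from seed in sterilized diluvial soil at 25 to 30° C. Herbicidal effects were scored three weeks later.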

Italian ryegrass [20] = assay: as above; conditions: three weeks after application
Summary of the method: as §4

water foxtail [21] = assay: as above; conditions: three weeks after application
Summary of the method: as §4

common ragweed [22] = assay: as above; conditions: three weeks after application
Summary of the method: as §4

common lambsquater [23] = assay: as above; conditions: three weeks after application
Summary of the method: as §4

giant foxtail [24] = assay: as above; conditions: three weeks after application
Summary of the method: as §4

wild oat [25] = assay: as above; conditions: three weeks after application
Summary of the method: as §4

beadstraw = assay: as above; conditions: three weeks after application
Summary of the method: as §4

redroot pigweed [26] = assay: as above; conditions: three weeks after application
Summary of the method: as §4

large crabgrass [27] = assay: as above; conditions: three weeks after application
Summary of the method: as §4

barnyardgrass [28] = assay: as above; conditions: three weeks after application
Summary of the method: as §4

velvetleaf [29] = assay: as above; conditions: three weeks after application
Summary of the method: as §4

common chickweed [30] = assay: as above; conditions: three weeks after application
Summary of the method: as §4

transplanted rice = assay: Test Example 1: preemergence treatment under submerged conditions, effect on crop; conditions: dose 2.52 g/a
Summary of the method: as §3

In the case of `CC1OCCN(Cc2ccccc2NS(=O)(=O)C(F)(F)F)C1=O` (centres unmarked) [Compound I-4, 2-methyl-4-(2-trifluoromethanesulfonylaminobenzyl)-1,4-oxazinan-3-one], the “M: posumbu knotweed, herbicidal effect (evaluation scale 0-5)” value (posumbu knotweed [1]; dose 6.3 g/a) is reported as 4 (mortality of at least 70% and less than 90%), the “H: Italian ryegrass, herbicidal effect (evaluation scale 0-5)” value (Italian ryegrass [2]; dose 6.3 g/a) is reported as 3 (mortality of at least 40% and less than 70%) and the “G: water foxtail, herbicidal effect (evaluation scale 0-5)” value (water foxtail [3]; dose 6.3 g/a) is reported as 5 (mortality of 90% or above (nearly complete death)). The “J: common ragweed, herbicidal effect (evaluation scale 0-5)” value (common ragweed [4]; dose 6.3 g/a) was 5 (mortality of 90% or above (nearly complete death)), the “L: common lambsquater, herbicidal effect (evaluation scale 0-5)” value (common lambsquater [5]) was 5 (mortality of 90% or above (nearly complete death)) and the “E: giant foxtail, herbicidal effect (evaluation scale 0-5)” value (giant foxtail [6]; dose 6.3 g/a) was 3 (mortality of at least 40% and less than 70%). For the same molecule, the “F: wild oat, herbicidal effect (evaluation scale 0-5)” value (wild oat [7]; dose 6.3 g/a) was 0 (mortality of less than 5% (almost ineffective)), the “K: redroot pigweed, herbicidal effect (evaluation scale 0-5)” value (redroot pigweed [8]; dose 6.3 g/a) was 4 (mortality of at least 70% and less than 90%) and the “D: large crabgrass, herbicidal effect (evaluation scale 0-5)” value (large crabgrass [9]; dose 6.3 g/a) was 5 (mortality of 90% or above (nearly complete death)). For the same molecule, the “A: barnyardgrass, herbicidal effect (evaluation scale 0-5)” value (barnyardgrass [10]; dose 6.3 g/a) was 4 (mortality of at least 70% and less than 90%), the “I: velvetleaf, herbicidal effect (evaluation scale 0-5)” value (velvetleaf [11]; dose 6.3 g/a) was 4 (mortality of at least 70% and less than 90%) and the “N: common chickweed, herbicidal effect (evaluation scale 0-5)” value (common chickweed [12]; dose 6.3 g/a) was 5 (mortality of 90% or above (nearly complete death)). The “B: bulrush, herbicidal effect (evaluation scale 0-5)” value (“B: bulrush, herbicidal effect” below) (bulrush [13]) was 5 (mortality of 90% or above (nearly complete death)), the “C: ducksalad, herbicidal effect (evaluation scale 0-5)” value (shortened to “C: ducksalad, herbicidal effect”) (ducksalad [14]) was 5 (mortality of 90% or above (nearly complete death)) and the “A: barnyardgrass, herbicidal effect (evaluation scale 0-5)” value (barnyardgrass [15]) was 5 (mortality of 90% or above (nearly complete death)). The “B: bulrush, herbicidal effect” value (bulrush [16]) was 5 (mortality of 90% or above (nearly complete death)), the “C: ducksalad, herbicidal effect” value (ducksalad [17]) was 5 (mortality of 90% or above (nearly complete death)) and the “A: barnyardgrass, herbicidal effect (evaluation scale 0-5)” value (barnyardgrass [18]) was 5 (mortality of 90% or above (nearly complete death)). The “M: posumbu knotweed, herbicidal effect” value (posumbu knotweed [19]; dose 6.3 g/a) was 3 (mortality of at least 40% and less than 70%), the “H: Italian ryegrass, herbicidal effect” value (Italian ryegrass [20]; dose 6.3 g/a) was 2 (mortality of at least 20% and less than 40%) and the “G: water foxtail, herbicidal effect” value (water foxtail [21]; dose 6.3 g/a) was 5 (mortality of 90% or above (nearly complete death)). For the same molecule, the “J: common ragweed, herbicidal effect” value (common ragweed [22]; dose 6.3 g/a) was 4 (mortality of at least 70% and less than 90%), the “L: common lambsquater, herbicidal effect” value (common lambsquater [23]; dose 6.3 g/a) was 4 (mortality of at least 70% and less than 90%) and the “E: giant foxtail, herbicidal effect” value (giant foxtail [24]; dose 6.3 g/a) was 4 (mortality of at least 70% and less than 90%). For the same molecule, the “F: wild oat, herbicidal effect” value (wild oat [25]; dose 6.3 g/a) was 0 (mortality of less than 5% (almost ineffective)), the “O: beadstraw, herbicidal effect” value (beadstraw; dose 6.3 g/a) was 4 (mortality of at least 70% and less than 90%) and the “K: redroot pigweed, herbicidal effect” value (redroot pigweed [26]; dose 6.3 g/a) was 3 (mortality of at least 40% and less than 70%). For the same molecule, the “D: large crabgrass, herbicidal effect” value (large crabgrass [27]; dose 6.3 g/a) was 5 (mortality of 90% or above (nearly complete death)), the “A: barnyardgrass, herbicidal effect” value (barnyardgrass [28]; dose 6.3 g/a) was 5 (mortality of 90% or above (nearly complete death)) and the “I: velvetleaf, herbicidal effect” value (velvetleaf [29]; dose 6.3 g/a) was 5 (mortality of 90% or above (nearly complete death)). For the same molecule, the “N: common chickweed, herbicidal effect” value (common chickweed [30]; dose 6.3 g/a) was 4 (mortality of at least 70% and less than 90%).
`CCCOC(=O)N(c1ccccc1CN1COC(C)(C)CC1=O)S(=O)(=O)C(F)(F)F` [II-24] was tested, and the “a: transplanted rice, effect on crop (evaluation scale 0-5)” value (transplanted rice) was 0 (mortality of less than 5% (almost ineffective)), the “M: posumbu knotweed, herbicidal effect (evaluation scale 0-5)” value (posumbu knotweed [1]; dose 3.2 g/a) was 4 (mortality of at least 70% and less than 90%) and the “H: Italian ryegrass, herbicidal effect (evaluation scale 0-5)” value (Italian ryegrass [2]; dose 3.2 g/a) was 5 (mortality of 90% or above (nearly complete death)). For the same molecule, the “G: water foxtail, herbicidal effect (evaluation scale 0-5)” value (water foxtail [3]; dose 3.2 g/a) was 5 (mortality of 90% or above (nearly complete death)), the “J: common ragweed, herbicidal effect (evaluation scale 0-5)” value (common ragweed [4]; dose 3.2 g/a) was 4 (mortality of at least 70% and less than 90%) and the “E: giant foxtail, herbicidal effect (evaluation scale 0-5)” value (giant foxtail [6]; dose 3.2 g/a) was 3 (mortality of at least 40% and less than 70%). The “F: wild oat, herbicidal effect (evaluation scale 0-5)” value (wild oat [7]; dose 3.2 g/a) was 0 (mortality of less than 5% (almost ineffective)), the “K: redroot pigweed, herbicidal effect (evaluation scale 0-5)” value (redroot pigweed [8]; dose 3.2 g/a) was 0 (mortality of less than 5% (almost ineffective)) and the “D: large crabgrass, herbicidal effect (evaluation scale 0-5)” value (large crabgrass [9]; dose 3.2 g/a) was 4 (mortality of at least 70% and less than 90%). The “A: barnyardgrass, herbicidal effect (evaluation scale 0-5)” value (barnyardgrass [10]; dose 3.2 g/a) was 4 (mortality of at least 70% and less than 90%), the “I: velvetleaf, herbicidal effect (evaluation scale 0-5)” value (velvetleaf [11]; dose 3.2 g/a) was 5 (mortality of 90% or above (nearly complete death)) and the “N: common chickweed, herbicidal effect (evaluation scale 0-5)” value (common chickweed [12]; dose 3.2 g/a) was 3 (mortality of at least 40% and less than 70%). For the same molecule, the “B: bulrush, herbicidal effect” value (bulrush [13]) was 5 (mortality of 90% or above (nearly complete death)), the “C: ducksalad, herbicidal effect” value (ducksalad [14]) was 5 (mortality of 90% or above (nearly complete death)) and the “A: barnyardgrass, herbicidal effect (evaluation scale 0-5)” value (barnyardgrass [15]) was 5 (mortality of 90% or above (nearly complete death)). The “B: bulrush, herbicidal effect” value (bulrush [16]) was 5 (mortality of 90% or above (nearly complete death)), the “C: ducksalad, herbicidal effect” value (ducksalad [17]) was 5 (mortality of 90% or above (nearly complete death)) and the “A: barnyardgrass, herbicidal effect (evaluation scale 0-5)” value (barnyardgrass [18]) was 5 (mortality of 90% or above (nearly complete death)). The “M: posumbu knotweed, herbicidal effect” value (posumbu knotweed [19]; dose 3.2 g/a) was 3 (mortality of at least 40% and less than 70%), the “H: Italian ryegrass, herbicidal effect” value (Italian ryegrass [20]; dose 3.2 g/a) was 4 (mortality of at least 70% and less than 90%) and the “G: water foxtail, herbicidal effect” value (water foxtail [21]; dose 3.2 g/a) was 5 (mortality of 90% or above (nearly complete death)). The “J: common ragweed, herbicidal effect” value (common ragweed [22]; dose 3.2 g/a) was 3 (mortality of at least 40% and less than 70%), the “L: common lambsquater, herbicidal effect” value (common lambsquater [23]; dose 3.2 g/a) was 0 (mortality of less than 5% (almost ineffective)) and the “E: giant foxtail, herbicidal effect” value (giant foxtail [24]; dose 3.2 g/a) was 4 (mortality of at least 70% and less than 90%). The “F: wild oat, herbicidal effect” value (wild oat [25]; dose 3.2 g/a) was 0 (mortality of less than 5% (almost ineffective)), the “O: beadstraw, herbicidal effect” value (beadstraw; dose 3.2 g/a) was 5 (mortality of 90% or above (nearly complete death)) and the “K: redroot pigweed, herbicidal effect” value (redroot pigweed [26]; dose 3.2 g/a) was 0 (mortality of less than 5% (almost ineffective)). For the same molecule, the “D: large crabgrass, herbicidal effect” value (large crabgrass [27]; dose 3.2 g/a) was 4 (mortality of at least 70% and less than 90%), the “A: barnyardgrass, herbicidal effect” value (barnyardgrass [28]; dose 3.2 g/a) was 5 (mortality of 90% or above (nearly complete death)) and the “I: velvetleaf, herbicidal effect” value (velvetleaf [29]; dose 3.2 g/a) was 4 (mortality of at least 70% and less than 90%). The “N: common chickweed, herbicidal effect” value (common chickweed [30]; dose 3.2 g/a) was 4 (mortality of at least 70% and less than 90%).
